The NIST ThermoML archive (doi:10.1016/j.jct.2014.02.016)
± gives the expanded uncertainty stated by the source.

Experiment: refractive index (other wavelength) (dimensionless)
Conditions: 100 kPa, Liquid, Wavelength=632.8 nm, Angle minimization by sell rotation

COC(=O)OC [dimethyl carbonate]
Conditions | refractive index
293.16 K | 1.3678 ± 0.0003
294.29 K | 1.3673 ± 0.0003
295.28 K | 1.3669 ± 0.0003
296.28 K | 1.3663 ± 0.0003
297.28 K | 1.3659 ± 0.0003
298.3 K | 1.3654 ± 0.0003
300.3 K | 1.3644 ± 0.0003
302.3 K | 1.3635 ± 0.0003
303.4 K | 1.363 ± 0.0003

CCCCCCCCCCCCC [tridecane]
Conditions | refractive index
294.14 K | 1.4241 ± 0.0003
295.15 K | 1.4236 ± 0.0003
296.18 K | 1.4232 ± 0.0003
297.23 K | 1.4227 ± 0.0003
299.35 K | 1.4218 ± 0.0003
300.44 K | 1.4213 ± 0.0003
302.44 K | 1.4204 ± 0.0003
303.67 K | 1.4199 ± 0.0003
304.45 K | 1.4196 ± 0.0003

CCCCCCCCCCC [undecane]
Conditions | refractive index
293.4 K | 1.4162 ± 0.0003
294.3 K | 1.4157 ± 0.0003
295.27 K | 1.4152 ± 0.0003
296.26 K | 1.4148 ± 0.0003
297.25 K | 1.4144 ± 0.0003
298.27 K | 1.4139 ± 0.0003
299.34 K | 1.4134 ± 0.0003
300.31 K | 1.413 ± 0.0003
301.27 K | 1.4126 ± 0.0003
